Test results from patent publication US10577399B2, “Modified lantibiotics and methods of making and using the modified lantibiotics” (priority 2016, dated 2020).
Converted amounts (≈) assume the structure as drawn. “Also recorded” adds a separate entry of the source.

Tests used:
[1] = system: M. luteus ATCC 10240; assay type: cell-based, Micrococcus luteus
How it was run: (§1)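 Broth microdilution: antibiotic in 50% acetonitrile, 2-fold dilutions from 640 μg/mL stock down to 0.156 μg/mL, 10 μL per well plus 190 μL of ~10^5 CFU bacteria grown in THyex at 37 °C. MIC read as concentration preventing visible growth after 24 h.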

[2] = Solubility in saline; assay type: physicochemical; conditions: saline solution
[3] = Pharmacokinetics after intravenous dose in mice; assay type: in vivo; conditions: mouse, iv, 2.5 mg/kg i. v., BALB/c mice, polynomial second order estimate
Procedure: The compounds were dissolved in normal saline for all pharmacokinetic studies. An extraction protocol was developed in vitro by the addition of each compound to commercially bought BALB/c mouse serum. The compounds were extracted by the addition of 70% ACN containing 0.1% TFA/30% methanol containing 0.4% formic acid. The extract was then analyzed by LC-MS using a TSQ Vantage Triple Quad mass spectrometer. A standard curve was generated for each compound using known dilutions of the compounds in serum, which was then extracted. The R-squared values for each standard exceeded 0.98. BALB/c mice were used to evaluate pharmacokinetics of the compounds in vivo. A 2.5 mg/kg i. v. dose was evaluated for native mutacin, R13A, S5G, and double mutant S5A:T14G (FIG. 12A). A polynomial second order was used to estimate the peak plasma concentration and half-life of the R13A. […] Possibly, the Dhb14 residue may protect the peptide from trypsin-like proteases in the blood. […] Thus, taking the dynamics of cell death into account and the pharmacokinetics of the R13A, the R13A in serum is above the inhibitory concentration for S. pneumonia long enough to kill the pathogen.

[4] = system: trypsin; test: Trypsin stability screen with M. luteus overlay; assay type: in vitro ADME; conditions: 0.5 mg/mL trypsin, 37° C., 30 minutes
Excerpt: Selective activity and stability of analogs: Several core peptide mutants are provided that have improved activity against our ATCC strain of S. pneumoniae. These core peptide mutants were also selected based on the absence of a dehydrated residue Dha/Dhb or the proteolytically susceptible arginine residue. […] Although the analog S5G had improved activity against S. pneumoniae ATCC 27336 compared to native mutacin and R13A, the S5G had less activity against all other tested strains of S. pneumoniae. […] 4) The R13A mutation prevents feedback inhibition of mutacin 1140 production, leading to a 100% increase in yield from the culture liquor. […] They are important for immunoregulation and blood coagulation. The observed increase in stability of the R13A analog will likely be advantageous in an animal model.

[5] = system: S. pneumoniae ATCC 27336; assay type: cell-based, Streptococcus pneumoniae
How it was run: as §1

[6] = Lipid II binding assay by thin layer chromatography; conditions: 3:10 peptide:lipid II ratio
Procedure: Lipid II was a kind gift from Eefjan Breukink and was resuspended in a 1:1 Methanol:Chloroform solution. The lipid II binding assay using thin layer chromatography (TLC) was done as previously described^39. The mobile solvent consisted of consisted of butanol:acetic acid:water:pyridine (15:3:12:10 [vol/vol/vol/vol]). A 0.2 mM solution of mutacin 1140 or mu1140-COOH in 10 μL of solution A was mixed with lipid II (final […]) for 1 hour in a sealed glass vial. This corresponded to a ratio 3:10 peptide:lipid II ratio. All of the reaction mixtures and the appropriate controls were spotted (5 μL) 2 cm from the bottom of the plate. These spots define the origin of the plate. […] The mobile phase was allowed to climb up the plate until it reached a centimeter from the top. The plate was allowed to dry before staining with iodine.
With the loss of activity associated with a free carboxyl group in mu1140-COOH, the basis for the loss in activity was studied. The mechanism of action for class I lantibiotics has been determined to be due to lipid II binding^34-36. In particular, rings A and B are believed to form a cage-like structure around the pyrophosphate moiety of lipid II^37. The latter half of the peptide is predicted to enhance binding and recruit other lipid II-lantibiotic molecules into a large lipid II-lantibiotic complex^16. […]

[7] = system: B. subtilis PY79 cells; test: Microscopy lipid II competition assay with fluorescein labeled nisin; assay type: cell-based, Bacillus subtilis; conditions: pretreatment 10 μg/mL for 15 minutes
Procedure: B. subtilis PY79 was grown and treated with fluorescein labeled peptide as previously described^39. A fresh plate of B. subtilis was used to inoculate THyex broth and incubated approximately 16 hours at 37° C. The culture was diluted 20-fold and placed back in the incubator for 3 hours at 37° C. Then, 100 μl of the culture was incubated with the antibiotic (10 μg/mL) for 15 minutes. The cells were pelleted and resuspended in 100 μl of phosphate buffer solution (PBS). The wash step was repeated three times before fixing with 1.6% formaldehyde in PBS. After fixation the cells were washed with PBS three more times and the remaining pellet was suspended in 50 μL of PBS. The sample (30 μL) was added to a slide and observed using an Olympus confocal microscope with a 100×/0.90 dry objective. A 488 nm argon laser was used to excite the fluorophore. For the competition assay, the bacterial culture was initially incubated with mu1140-COOH or native mutacin 1140 at a concentration of 10 μg/mL for 15 minutes, washed, and resuspended in fresh media. 10 μg/mL of fluorescein labeled nisin was then added for 15 minutes, before following the wash protocol previously stated.

| Structure (SMILES) | MIC ([1]; Table 10, indicator strain Micrococcus luteus) | solubility [2] | half-life ([3]; in vivo, read-out: estimated half-life) | Cmax ([3]; plasma, read-out: peak plasma concentration) | stability to trypsin [4] | MIC (μg/mL) M. luteus ([1]; Table 7, chemically modified analogs) | reduction in activity compared to wild type mutacin 1140 (MIC, M. luteus) ([1]; vs wild type mutacin 1140) | MIC (μg/mL) S. pneumoniae ([5]; Table 7, S. pneumoniae ATCC 27336) | reduction in activity (MIC, S. pneumoniae ATCC 27336) ([5]; vs wild type mutacin 1140) | iodine stain at the origin of the TLC plate when mixed with lipid II [6] | binding of fluorescein labeled nisin after pretreatment of cells [7] |
| --- | --- | --- | --- | --- | --- | --- | --- | --- | --- | --- | --- |
| C=C1NC(=O)[C@H](Cc2c[nH]c3ccccc23)NC(=O)C(NC(=O)[C@H](CCCCN)NC(=O)[C@@H](N)Cc2ccccc2)CSC[C@@H](C(=O)NC2C(=O)N3CCC[C@H]3C(=O)NCC(=O)N[C@H](C(=O)N[C@@H](C)C(=O)N[C@@H](C)C(=O)NC(=CC)C(=O)NCC(=O)NC3CSC[C@@H]4NC(=O)[C@H](Cc5ccc(O)cc5)NC(=O)[C@@H](CS/C=C\NC4=O)NC(=O)[C@H](CC(N)=O)NC(=O)[C@H](Cc4ccccc4)NC3=O)CSC2C)NC(=O)[C@H](CC(C)C)NC1=O (some centres unmarked) [Mutant R13A] | 0.0625 µg/mL (≈ 0.0287 µM) | > 2000 µg/mL | 70 min | 1700 ng/mL | improved stability |  |  |  |  |  |  |
| C=C1NC(=O)[C@H](Cc2c[nH]c3ccccc23)NC(=O)[C@H](NC(=O)[C@H](CCCCN)NC(=O)[C@@H](N)Cc2ccccc2)CSC[C@@H](C(=O)N[C@H]2C(=O)N3CCC[C@H]3C(=O)NCC(=O)N[C@H](C(=O)N[C@@H](C)C(=O)N[C@@H](CCCNC(=N)N)C(=O)N/C(=C\C)C(=O)NCC(=O)N[C@@H]3CSC[C@@H]4NC(=O)[C@H](Cc5ccc(O)cc5)NC(=O)[C@@H](CSC[C@@H](C(=O)O)NC4=O)NC(=O)[C@H](CC(N)=O)NC(=O)[C@H](Cc4ccccc4)NC3=O)CS[C@H]2C)NC(=O)[C@H](CC(C)C)NC1=O [Mu1140 - COOH] |  |  |  |  |  | 32 µg/mL (≈ 13.8 µM) | 256 fold | greater than 64 μg/mL | > 128 fold | faint stain | no typical in vivo fluorescence pattern was observed; also recorded: drastically reduces binding of fluorescein labeled nisin |
